Values of other authors as cited in US20040092577A1, “Microparticle pharmaceutical compositions for intratumoral delivery” (priority 2002, published 2004).

Assays:
[1] = tested on: MDA-468 breast cancer cells; conditions: Lankmela et al.
[2] = gels, 0.6% loading; Zentner 2001

rate of uptake α [1] [s⁻¹] | duration of delivery [2] [weeks] | Compound
0.016 | – | COc1cccc2c1C(=O)c1c(O)c3c(c(O)c1C2=O)C[C@@](O)(C(=O)CO)C[C@@H]3O[C@H]1C[C@H](N)[C@H](O)[C@H](C)O1 [doxorubicin]
– | 1 to 6 | CC(=O)O[C@H]1C(=O)[C@@]2(C)[C@H]([C@H](OC(=O)c3ccccc3)[C@]3(O)C[C@H](OC(=O)[C@H](O)[C@@H](NC(=O)c4ccccc4)c4ccccc4)C(C)=C1C3(C)C)[C@]1(OC(C)=O)CO[C@@H]1C[C@@H]2O [Paclitaxel]
